Measurements reported in US20220160812A1, “A PHARMACEUTICALLY ACTIVE SUBSTANCE” (Cytopharma GmbH, priority 2019, published 2022).

Legend:
A375 melanoma cells [1] = test: subG1 cell cycle FACS apoptosis assay, A375 melanoma cells; format: cell-based, human; conditions: about 24 hours, FIG. 3
Experimental: (§1) To transfer adherent cells (A375 and BxPC-3 cells) after culture, cells are washed twice with PBS. To detach the cells, the enzyme biotase is used according to the manufacturer's instructions. For this purpose, after washing with PBS, the cells are mixed with biotase (5 ml of biotase solution per 75 cm^2 surface of the cell culture bottles) and incubated for 5 min at 37 degrees Celsius, and the biotase is separated by centrifugation. Cells cultivated in suspension (MEC-1 and lymphocytes) were transferred by dilution. The cells are suspended in culture medium and counted, each time 1.5×10^5 cells/cm^2 are seeded in 48-well plates and cultured for between 1.5 and 24 hours at 37 degrees Celsius, 5% CO2. Peptides are pre-diluted from stock solution with culture medium and 200 μl of peptide solution added so that final concentrations of 30 to 500 μM peptide are present in at most 1% (v/v) DMSO. As control solutions, culture medium without peptide (DMSO-containing) in culture medium or etoposide solution is added. After incubating the cells for several hours, the cell supernatant is transferred to a FACS tube for each batch and, after washing the cells with PBS, the wash solution is added. Then the cells are incubated with 200 μl of biotase solution for 10 min, 37° C., the cells with the biotase are also transferred to the FACS tube and the cells are collected by centrifugation for 5 min. The cell pellet is suspended in 500 μl of serum-free culture medium, then 1.5 ml of cold 80% ethanol (ethanol/PBS-80/20, v/v, stored at −20° C.) is added, the FACS tubes sealed and stored at −20 degrees Celsius for 15 to 18 h. Thereafter, the cells are centrifuged for 5 minutes at 120 g, suspended after removal of the supernatant in 2 ml PBS and incubated at 37 degrees Celsius for 30 minutes. After re-centrifugation, the cells are suspended in 0.5 ml DAPI solution and incubated for 15 min at 20 degrees Celsius in the dark. Thereafter, the cells are stored dark for a maximum of four hours in an ice bath, followed by the FACS analysis.
The adherent cells (A375 and BxPC-3 cells and MDA-MB-231, respectively) are seeded 24 hours before induction in 6-well plates in culture medium. For this, the cells are washed with PBS, then incubated with trypsin/EDTA solution at 37 degrees Celsius and suspended in culture medium. The 6-well plates are loaded with 1×10^5 cells/cm^2 in culture medium and the cells incubated for 24 hours until induction with the peptides in the incubator. For induction, the peptides are diluted in fresh culture medium. As control solutions, culture medium without peptide (DMSO-containing) in culture medium or etoposide solution is added. The cells are washed with PBS. Thereafter the peptide solution in culture medium is added to the cells. After incubation in the incubator (37° C., 5% CO2) between 1.5 and 24 hours, the cell supernatant is transferred to 15 ml centrifuge tubes, the cells are washed with 0.75 ml PBS and then with 0.5 ml versene solution. Both washings are combined with the cell supernatant. The cells are then added with 0.5 ml of trypsin/EDTA solution and incubated at about 37° C. for at most 10 minutes until the cells detached. The cell suspension is combined with cell supernatant and washings and centrifuged at about 130 g for about 10 minutes. After removing the supernatant, the cells are suspended in 400 μl of cell culture medium (without serum) and mixed with 1.2 ml of 80% ethanol/20% PBS (v/v) and incubated for 1 to 7 days at −20° C. For analysis, the cells are centrifuged at 130 g for 10 min, suspended in 2 ml PBS, and centrifuged again for 5 min. The cells are suspended in 700 μl PI buffer and incubated for 10 min at 37° C. in the dark. Subsequently, the cells are stored dark for a maximum of four hours in an ice bath, then the FACS analysis is performed.
The proportion of cells which have died was determined by two methods, both rely on the analysis of cells by flow cytometry, often called FACS analysis. […]

A375 melanoma cells [2] = test: cell vitality FACS analysis (region R-1, FSC/SSC), A375 melanoma cells; format: cell-based, human; conditions: A375, Protocol A, about 24 hours, FIG. 7; for decrease of cell vitality, comparison in words: any concentration (100, 200, 500 μM)
Experimental: as §1
For suspension cells (MEC-1 and lymphocytes/PBMC) and for adherent cells analyzed according to Protocol A, FACS analysis to determine subG1 cell cycle and vital cell fractions was done on a Becton Dickinson LSR Fortessa flow cytometer. The analysis by FACS including subG1 and vital cell analysis according to protocol B was performed with a Cytomics FC 500 MPL flow cytometer from Beckman Coulter.
Changes of the cell form during cell death by apoptosis are documented in the literature (Lizard et al. 1995; Taga et al. 2000; Vermes et al., 2000). The protocols for cell cultivation, treatment and preparation of the cells before flow cytometry is detailed in separate examples. Cell suspensions of cell lines A375, BxPC-3, MEC-1 or of primary lymphocytes (see separate example of lymphocyte preparation) are analyzed by flow cytometry. The data are further analyzed by using the program “Flowing Software 2”. The data of light scattering are drawn in a two-dimensional FSC/SSC plot. Since the position in the FSC/SSC plot of apoptotic cells changes relative to non-apoptotic cells (Vermes et al., 2000), a region (R-1) is drawn representing mainly non-apoptotic cells and excluding cells with both low FSC and low SSC values and excluding cells with high values of FSC and/or SSC (FIG. 1). The regions are individually selected for each cell type (A375, BxPC-3, MEC-1 and primary lymphocytes). The percentage of untreated non-apoptotic cells in the region R-1 relative to total cells is set to 100%, representing 100% vital cells. The fraction (%) of cells in R-1 relative to the total number of cells in case of cell treatment by certain peptides or by cytotoxic drugs results in cell vitality, below 100%, thereby indicating a loss of cell vitality by the treatment. […]

s-q-t-v-q-k-w-m-v-v-y-f-r [SEQID No 38]
apoptosis efficiency (subG1), comparison in words (A375 melanoma cells [1]; A375, Protocol A, 100, 200, 500 μM): clear improvement over peptide SEQID NO 27 at a concentration below 500 μM and over Peptide SEQID NO 39 at a concentration above 100 μM
apoptosis efficiency (subG1) in view of Peptide SEQ C1 (A375 melanoma cells [1]; A375, Protocol A, any concentration (100, 200, 500 μM)): at least tenfold
efficiency (decrease of cell vitality) in view of Peptide SEQ C1 (A375 melanoma cells [2]; 200 μM): at least threefold
efficiency (decrease of cell vitality) in view of Peptide SEQ C1 (A375 melanoma cells [2]; 500 μM): at least tenfold
decrease of cell vitality, comparison in words (A375 melanoma cells [2]): clear improvement over peptides SEQID NO 27 and SEQID NO 39 at any concentration
decrease of cell vitality, comparison in words (A375 melanoma cells [2]; listed as SEQID NO 38): significantly greater decrease than the peptide of the prior art (Peptide SEQ C1)
